Experimental data from ChEMBL document CHEMBL4270610, “Pyrrolopyrimidines: An update on recent advancements in their medicinal attributes” (Eur J Med Chem, 2018).
In brackets after ≈: the same amount, converted by molar mass.

Assays:
Rattus norvegicus [1] = assay: Anti-hyperglycemic activity in Wistar albino rat sucrose loaded model assessed as reduction in blood glucose level at 4 mg/kg equiv of glimepiride pretreated orally for 30 mins followed by sucrose challenge and measured up to 120 mins post sucrose challenge relative to control; type: functional; set-up: scale not given: the % may be the effect or the level left
Rattus norvegicus [2] = assay: Anti-hyperglycemic activity in streptozotocin-induced Wistar albino rat diabetic model assessed as reduction in blood glucose level at 4 mg/kg equiv of glimepiride treated orally measured up to 6 hrs post dose by glucometric method relative to control; type: functional; set-up: scale not given: the % may be the effect or the level left
Tetrahymena = assay: Protozoacidal activity against Tetrahymena; type: functional
Escherichia coli = assay: Antibacterial activity against Escherichia coli; type: functional
Salmonella typhimurium = assay: Antibacterial activity against Salmonella typhimurium; type: functional, Salmonella enterica subsp. enterica serovar Typhimurium; conditions: Salmonella enterica
Jurkat E6.1 = assay: Antiproliferative activity against human Jurkat E6-1 cells; type: functional, cell-based
HL-60 = assay: Antiproliferative activity against human HL60 cells; type: functional, cell-based
[3] = tested on: unidentified influenza virus; assay: Antiviral activity against Influenza virus H5N1; type: functional
Rattus norvegicus [4] = assay: Inhibition of LPS-induced TNFalpha level in Sprague-Dawley rat serum at 25 mg/kg, po pretreated for 1 hr followed by LPS treatment measured after 90 mins by ELISA relative to control; type: functional
[5] = target: Proto-oncogene tyrosine-protein kinase Src (Homo sapiens) (UniProt P12931); assay: Inhibition of Src (unknown origin) at 0.1 mM using Src-family kinase bisamide rhodamine 110 peptide substrate after 1 hr by fluorescence assay relative to control
Sequence of Proto-oncogene tyrosine-protein kinase Src (Homo sapiens) (P12931 2-536 limits assumed): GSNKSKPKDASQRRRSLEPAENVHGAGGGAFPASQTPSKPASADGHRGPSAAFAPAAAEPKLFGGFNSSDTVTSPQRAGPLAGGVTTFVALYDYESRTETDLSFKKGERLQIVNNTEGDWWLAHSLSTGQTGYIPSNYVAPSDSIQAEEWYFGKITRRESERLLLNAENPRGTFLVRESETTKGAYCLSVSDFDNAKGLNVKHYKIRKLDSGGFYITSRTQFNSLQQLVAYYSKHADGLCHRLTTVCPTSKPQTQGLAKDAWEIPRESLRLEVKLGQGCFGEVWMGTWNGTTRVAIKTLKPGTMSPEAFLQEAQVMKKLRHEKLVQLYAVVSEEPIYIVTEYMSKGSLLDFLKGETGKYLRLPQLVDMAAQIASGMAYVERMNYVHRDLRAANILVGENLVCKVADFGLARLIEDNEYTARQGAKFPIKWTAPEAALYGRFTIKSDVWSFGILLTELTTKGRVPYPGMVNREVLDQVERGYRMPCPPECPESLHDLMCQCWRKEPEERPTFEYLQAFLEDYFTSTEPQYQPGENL

[6] = target: T1, Tyrosine-protein kinase Lyn (Homo sapiens, UniProt P07948); assay: Inhibition of Lyn (unknown origin) at 0.1 mM using Src-family kinase bisamide rhodamine 110 peptide substrate after 1 hr by fluorescence assay relative to control
Target sequence in this assay (P07948 2-512 limits assumed): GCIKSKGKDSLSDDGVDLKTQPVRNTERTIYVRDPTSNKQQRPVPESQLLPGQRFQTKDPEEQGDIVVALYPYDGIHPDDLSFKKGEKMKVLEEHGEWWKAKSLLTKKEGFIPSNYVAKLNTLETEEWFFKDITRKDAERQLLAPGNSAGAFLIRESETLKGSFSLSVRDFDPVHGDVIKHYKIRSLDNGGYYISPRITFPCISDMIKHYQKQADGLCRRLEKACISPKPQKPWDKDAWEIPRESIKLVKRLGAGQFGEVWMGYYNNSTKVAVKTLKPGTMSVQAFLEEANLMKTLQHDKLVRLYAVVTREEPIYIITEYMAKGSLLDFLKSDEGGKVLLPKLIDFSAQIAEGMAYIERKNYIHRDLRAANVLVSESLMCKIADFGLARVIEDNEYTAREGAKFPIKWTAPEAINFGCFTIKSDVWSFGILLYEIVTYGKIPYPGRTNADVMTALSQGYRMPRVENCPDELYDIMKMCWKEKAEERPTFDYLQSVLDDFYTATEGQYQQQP

[7] = target: T2, Tyrosine-protein kinase Fyn (Homo sapiens, UniProt P06241); assay: Inhibition of Fyn (unknown origin) at 0.1 mM using Src-family kinase bisamide rhodamine 110 peptide substrate after 1 hr by fluorescence assay relative to control
Target sequence in this assay (P06241 2-537 limits assumed): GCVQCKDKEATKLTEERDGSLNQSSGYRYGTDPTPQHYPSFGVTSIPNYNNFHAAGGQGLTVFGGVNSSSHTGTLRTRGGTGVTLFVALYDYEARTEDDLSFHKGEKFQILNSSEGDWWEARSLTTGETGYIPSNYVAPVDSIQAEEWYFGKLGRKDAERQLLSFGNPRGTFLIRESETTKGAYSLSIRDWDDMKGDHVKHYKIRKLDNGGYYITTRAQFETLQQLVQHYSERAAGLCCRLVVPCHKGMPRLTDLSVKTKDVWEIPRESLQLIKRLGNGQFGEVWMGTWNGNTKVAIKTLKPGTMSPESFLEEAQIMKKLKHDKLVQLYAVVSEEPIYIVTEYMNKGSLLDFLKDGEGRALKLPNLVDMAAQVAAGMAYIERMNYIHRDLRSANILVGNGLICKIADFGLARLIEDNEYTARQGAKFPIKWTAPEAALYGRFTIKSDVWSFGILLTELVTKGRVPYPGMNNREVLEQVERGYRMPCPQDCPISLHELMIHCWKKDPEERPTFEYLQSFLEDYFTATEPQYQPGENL

[8] = target: T2, Tyrosine-protein kinase Fyn; assay: Inhibition of Fyn (unknown origin) using Src-family kinase bisamide rhodamine 110 peptide substrate after 1 hr by fluorescence assay
Target sequence in this assay (P06241 whole entry): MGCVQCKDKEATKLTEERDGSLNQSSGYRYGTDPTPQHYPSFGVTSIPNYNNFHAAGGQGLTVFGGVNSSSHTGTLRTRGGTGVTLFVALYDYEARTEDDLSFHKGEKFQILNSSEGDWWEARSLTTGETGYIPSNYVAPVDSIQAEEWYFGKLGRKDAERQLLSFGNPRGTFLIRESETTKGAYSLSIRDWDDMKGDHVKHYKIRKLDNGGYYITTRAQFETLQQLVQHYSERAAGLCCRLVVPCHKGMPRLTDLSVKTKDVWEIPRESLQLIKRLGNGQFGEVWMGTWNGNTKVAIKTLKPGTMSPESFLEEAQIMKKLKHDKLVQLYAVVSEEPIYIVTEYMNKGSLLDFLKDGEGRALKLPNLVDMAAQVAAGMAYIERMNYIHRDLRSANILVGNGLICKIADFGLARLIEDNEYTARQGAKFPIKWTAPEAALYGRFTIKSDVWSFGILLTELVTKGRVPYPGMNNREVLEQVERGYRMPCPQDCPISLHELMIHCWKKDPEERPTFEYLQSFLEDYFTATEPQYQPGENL

Newcastle disease virus = assay: Antiviral activity against Newcastle disease virus; type: functional; conditions: avian paramyxovirus 1
[9] = target: T1, Tyrosine-protein kinase Lyn; assay: Inhibition of Lyn (unknown origin) using Src-family kinase bisamide rhodamine 110 peptide substrate after 1 hr by fluorescence assay
Target sequence in this assay (P07948 whole entry): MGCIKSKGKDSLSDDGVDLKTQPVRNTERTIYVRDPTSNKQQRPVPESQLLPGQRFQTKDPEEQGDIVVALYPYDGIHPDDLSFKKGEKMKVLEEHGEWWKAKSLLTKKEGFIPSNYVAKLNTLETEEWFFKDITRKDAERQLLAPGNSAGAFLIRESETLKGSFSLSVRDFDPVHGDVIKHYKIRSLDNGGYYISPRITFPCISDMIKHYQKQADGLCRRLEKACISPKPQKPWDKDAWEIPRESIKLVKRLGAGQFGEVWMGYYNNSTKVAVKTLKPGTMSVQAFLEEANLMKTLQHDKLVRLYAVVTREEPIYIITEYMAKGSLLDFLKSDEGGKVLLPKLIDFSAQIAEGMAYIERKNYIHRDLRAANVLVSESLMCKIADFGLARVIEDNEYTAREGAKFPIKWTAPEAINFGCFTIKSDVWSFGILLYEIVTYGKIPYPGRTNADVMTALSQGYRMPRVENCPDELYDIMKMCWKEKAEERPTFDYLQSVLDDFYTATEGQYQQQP

Compound `Cc1nc(Cl)c2c(-c3ccccc3)c(-c3ccccc3)n(-c3c(C)n(C)n(-c4ccccc4)c3=O)c2n1` has an Activity (Rattus norvegicus [1]) of 13% and an Activity (Rattus norvegicus [2]) of 11.2%.

For `C[C@H](Nc1ncnc2[nH]c(-c3ccc(O)cc3)cc12)c1ccc(Br)cc1`, the MIC (Tetrahymena) was 8 µg/mL (≈ 19.5 µM).

`O=c1[nH]cnc2c1cc(-c1ccc(Cl)cc1)n2-c1ccccc1` showed an MIC (Escherichia coli) of 3.2 µg/mL (≈ 9.95 µM) and an MIC (Salmonella typhimurium) of 3.2 µg/mL (≈ 9.95 µM).

`C[C@H](Nc1ncnc2[nH]c(-c3ccc(O)cc3)cc12)c1ccccc1` gave an MIC (Tetrahymena) of 8 µg/mL (≈ 24.2 µM).

`Nc1ccn([C@@H]2O[C@H](CO)[C@@H](O)[C@@H]2O)c(=O)n1` [CYTARABINE] gave an IC50 (Jurkat E6.1) of 18 nM and an IC50 (HL-60) of 185 nM.

`O=c1c2cc(-c3ccccc3)n(-c3ccccc3)c2ncn1CCOCCO` was tested, and the MIC [3] was 3.8 µg/mL (≈ 10.1 µM).

`C[C@@H]1C[C@H]2[C@@H]3CCC4=CC(=O)C=C[C@]4(C)[C@@]3(F)[C@@H](O)C[C@]2(C)[C@@]1(O)C(=O)CO` [DEXAMETHASONE] showed an inhibition in vivo at 25 mg/kg (Rattus norvegicus [4]) of 91%.

With `COc1ccc(CCCC(=O)NCc2c[nH]c3nc(N)[nH]c(=O)c23)cc1OC` the inhibition [5] was 54%, the inhibition [6] was 32% and the inhibition [7] was 38%.

`CCCCCc1ccc(-c2cc3cn([C@@H]4O[C@H](CO)[C@@H](O)[C@@H]4O)c(=O)nc3[nH]2)cc1` showed an IC50 (Jurkat E6.1) of 61000 nM and an IC50 (HL-60) of 68000 nM.

Compound `Nc1nc2[nH]cc(CNC(=O)COc3ccc(Cl)cc3)c2c(=O)[nH]1` has an inhibition [5] of 60%, an inhibition [6] of 28% and an inhibition [7] of 36%.

For `O=c1c2cc(-c3ccccc3)n(-c3ccccc3)c2ncn1CC(O)CO` (centres undefined), the MIC [3] was 3.6 µg/mL (≈ 9.96 µM).

With `C[C@@H](Nc1ncnc2[nH]c(-c3ccc(O)cc3)cc12)c1cccc2ccccc12` the MIC (Tetrahymena) was 32 µg/mL (≈ 84.1 µM).

`CCOc1ccc(NC(=O)Cn2cnc3c(cc(-c4ccccc4)n3-c3ccncc3)c2=O)cc1` showed an inhibition in vivo at 25 mg/kg (Rattus norvegicus [4]) of 96%.

Work on `CN1CCN([C@H]2CC[C@H](n3cc(-c4ccc(Oc5ccccc5)cc4)c4c(N)ncnc43)CC2)CC1` yielded an IC50 [8] of 0.3 nM.

Work on `NC(=O)c1ncn([C@@H]2O[C@H](CO)[C@@H](O)[C@H]2O)n1` [RIBAVIRIN] yielded an MIC (Newcastle disease virus) of 3 µg/mL (≈ 12.3 µM) and an MIC [3] of 6 µg/mL (≈ 24.6 µM).

`Cc1ccc(C(=O)NCc2c[nH]c3nc(N)[nH]c(=O)c23)s1` showed an inhibition [5] of 71%, an inhibition [6] of 40% and an inhibition [7] of 41%.

`COc1ccc(-c2cc3c(N[C@H](C)c4cccc5ccccc45)ncnc3[nH]2)cc1` showed an MIC (Tetrahymena) of 32 µg/mL (≈ 81.1 µM).

For `O=c1[nH]cnc2c1cc(-c1ccccc1)n2-c1ccccc1`, the MIC (Escherichia coli) was 2.8 µg/mL (≈ 9.75 µM), the MIC (Newcastle disease virus) was 2.7 µg/mL (≈ 9.4 µM) and the MIC (Salmonella typhimurium) was 2.8 µg/mL (≈ 9.75 µM).

For `O=c1c2cc(-c3ccc(Br)cc3)n(-c3ccccc3)c2ncn1CC(O)CO` (centres undefined), the MIC [3] was 4.1 µg/mL (≈ 9.31 µM).

For `O=c1c2cc(-c3ccc(Br)cc3)n(-c3ccccc3)c2ncn1CCOCCO`, the MIC [3] was 4.5 µg/mL (≈ 9.9 µM).

In the case of `COc1cccc(-c2cn(-c3ccc(CCN4CCC(O)CC4)cc3)c3ncnc(N)c23)c1`, the IC50 [9] is reported as 0.4 nM.
